# Experimental data reported in US9611277B2 (Janssen Pharmaceutica NV, priority 2013, dated 2017).
# Read-outs that look alike come from different tables or passages of the source.
# Legend:
# rat orexin 1 receptor = rat orexin 1 receptor (Rattus norvegicus, UniProt P56718); assay: Rat orexin 1 receptor radioligand binding; conditions: read-out: rOX1 Ki
# Description: (§1) Data are analyzed using pc-Sandy macro and graphed on Graphpad Prism 5. For analysis, each concentration point is averaged from triplicate values and the averaged values are plotted on Graphpad Prism. The IC50 was determined by applying the following equation (GraphPad Prism 5.0, SanDiego) for one site competition where X=log (concentration) and Y=specific binding. Top denotes the total [^3H]-(1-(5-(2-fluoro-phenyl)-2-methyl-thiazol-4-yl)-1-((S)-2-(5-phenyl-(1,3,4)oxadiazol-2-ylmethyl)-pyrrolidin-1-yl)-methanone) binding, bottom denotes the nonspecific [^3H]-(1-(5-(2-fluoro-phenyl)-2-methyl-thiazol-4-yl)-1-((S)-2-(5-phenyl-(1,3,4)oxadiazol-2-ylmethyl)-pyrrolidin-1-yl)-methanone) binding. Graphpad Prism calculates Ki value from IC50 and the pre-determined Kd values for [^3H]-(1-(5-(2-fluoro-phenyl)-2-methyl-thiazol-4-yl)-1-((S)-2-(5-phenyl-(1,3,4)oxadiazol-2-ylmethyl)-pyrrolidin-1-yl)-methanone) and [3H]-EMPA. The Ki for each compound is then uploaded into 3DX. Each run comprises individual compounds in triplicate. The data in Table 1 and Table 2 represent averages from between 2-20 runs
# (§2) Rat and Human Orexin 1 Receptor Radioligand Binding Studies
# (§3) After centrifugation (2K×G, 5 min at 4° C.), the supernatant was aspirated and the pellets frozen and stored at −80° C. […] Each cell pellet from a 15 cm plate was resuspended in 10 mL, stored on ice, and homogenized for 45 sec prior to addition to the reactions. […] The final concentration of DMSO in the reactions is equal to or less than 0.1%. Total and nonspecific binding was determined in the absence and presence of 10 μM almorexant. The total volume of each reaction is 200 μL (20 μL of diluted compounds, 80 μL of [^3H]-(1-(5-(2-fluoro-phenyl)-2-methyl-thiazol-4-yl)-1-((S)-2-(5-phenyl-(1,3,4)oxadiazol-2-ylmethyl)-pyrrolidin-1-yl)-methanone) diluted in PBS and 100 μL of the cell suspension). […] The plates were washed 3 times by aspirating 30 ml PBS through the plates. Plates were dried in 55° C. oven for 60 min, scintillation fluid was added, and the radioactivity was counted on a Topcount (Packard).
# human orexin 1 receptor = human orexin 1 receptor (Homo sapiens, UniProt O43613); assay: Human orexin 1 receptor radioligand binding; conditions: read-out: hOX1 Ki
# Description: as §1, §2, §3
# human orexin 2 receptor = human orexin 2 receptor (Homo sapiens (Human), UniProt O43614); assay: Human orexin 2 receptor radioligand binding; conditions: read-out: hOX2 Ki
# Sequence of human orexin 2 receptor (O43614 whole entry): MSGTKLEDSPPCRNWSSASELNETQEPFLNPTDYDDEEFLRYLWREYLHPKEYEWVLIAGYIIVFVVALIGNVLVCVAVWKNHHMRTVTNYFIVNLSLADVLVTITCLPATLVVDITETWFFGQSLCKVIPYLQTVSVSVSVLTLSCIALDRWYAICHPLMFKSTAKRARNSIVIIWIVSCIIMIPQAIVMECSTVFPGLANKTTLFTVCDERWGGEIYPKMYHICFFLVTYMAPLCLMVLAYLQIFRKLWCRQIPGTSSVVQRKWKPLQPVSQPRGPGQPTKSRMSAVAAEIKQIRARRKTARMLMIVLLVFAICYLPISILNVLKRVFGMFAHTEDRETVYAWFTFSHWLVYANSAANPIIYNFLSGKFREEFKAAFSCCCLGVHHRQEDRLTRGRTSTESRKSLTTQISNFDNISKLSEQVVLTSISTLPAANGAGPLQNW
# Description: as §1
# Human Orexin 2 Receptor Radioligand Binding Studies
# as §3, with “HEK293 stably expressing human orexin 2 receptor (Genebank accession number NM_001526) were grown to confluency in DMEM (Hyclone, cat # SH30022), 10% FBS, 1× Pen/Strep, 1× NaPyruvate, 10 mM HEPES, 600 ug/ml G418 media on 150 cm^2 tissue culture plates, washed with 5 mM EDTA in PBS (HyClone Dulbecco's Phosphate Buffered Saline 1× with Calcium and Magnesium, Cat # SH30264.01, hereafter referred to simply as PBS) and scraped into 50 ml tubes. After” for “After”, “sec just” for “sec”, “[^3H]-EMPA” for “[^3H]-(1-(5-(2-fluoro-phenyl)-2-methyl-thiazol-4-yl)-1-((S)-2-(5-phenyl-(1,3,4)oxadiazol-2-ylmethyl)-pyrrolidin-1-yl)-methanone)”
# [1] = rat orexin 1 receptor, averages of 2-20 runs
# [2] = human orexin 1 receptor, averages of 2-20 runs
# [3] = human orexin 2 receptor, averages of 2-20 runs
SMILES,Ki (rat orexin 1 receptor; [1]) [nM],Ki (human orexin 1 receptor; [2]) [nM],Ki (human orexin 2 receptor; [3]) [nM],also measured
"Cc1cccc(C(=O)N2C[C@H]3C[C@@H](Oc4ccc(C(F)(F)F)cn4)[C@@H]2C3)c1-c1ncco1 [Example 32, (3-methyl-2-(oxazol-2-yl)phenyl)((1S,4R,6R)-6-((5-(trifluoromethyl)pyridin-2-yl)oxy)-2-azabicyclo[2.2.1]heptan-2-yl)methanone]",,6,,
"Cc1ccc(C(=O)N2C[C@H]3C[C@@H](Oc4ccc(C(F)(F)F)cn4)[C@@H]2C3)c(-n2ccnn2)n1 [Example 34, (6-methyl-2-(1H-1,2,3-triazol-1-yl)pyridin-3-yl)((1S,4R,6R)-6-((5-(trifluoromethyl)pyridin-2-yl)oxy)-2-azabicyclo[2.2.1]heptan-2-yl)methanone]",162,368,,
"O=C(c1ccccc1-n1nccn1)N1C[C@H]2C[C@@H](Oc3ccc(C(F)(F)F)cn3)[C@@H]1C2 [Example 36, (2-(2H-1,2,3-triazol-2-yl)phenyl)((1S,4R,6R)-6-((5-(trifluoromethyl)pyridin-2-yl)oxy)-2-azabicyclo[2.2.1]heptan-2-yl)methanone]",,13,,
"O=C(c1ccc(F)cc1-n1nccn1)N1C[C@H]2C[C@@H](Oc3ccc(C(F)(F)F)cn3)[C@@H]1C2 [Example 44, (4-fluoro-2-(2H-1,2,3-triazol-2-yl)phenyl)((1S,4R,6R)-6-((5-(trifluoromethyl)pyridin-2-yl)oxy)-2-azabicyclo[2.2.1]heptan-2-yl)methanone]",,39,2330,
"O=C(c1c(F)cccc1-c1ncccn1)N1C[C@H]2C[C@@H](Oc3ccc(Br)cn3)[C@@H]1C2 [Example 47, ((1S,4R,6R)-6-((5-bromopyridin-2-yl)oxy)-2-azabicyclo[2.2.1]heptan-2-yl)(2-fluoro-6-(pyrimidin-2-yl)phenyl)methanone]",6,9,,
"O=C(c1ccccc1-n1nccn1)N1C[C@H]2C[C@@H](Nc3ccc(C(F)(F)F)cn3)[C@@H]1C2 [Example 53, (2-(2H-1,2,3-triazol-2-yl)phenyl)((1S,4S,6R)-6-((5-(trifluoromethyl)pyridin-2-yl)amino)-2-azabicyclo[2.2.1]heptan-2-yl)methanone]",,4,,
"Cc1ccc(-n2nccn2)c(C(=O)N2C[C@H]3C[C@@H](Nc4ccc(C(F)(F)F)cn4)[C@@H]2C3)n1 [Example 54, (6-methyl-3-(2H-1,2,3-triazol-2-yl)pyridin-2-yl)((1S,4S,6R)-6-((5-(trifluoromethyl)pyridin-2-yl)amino)-2-azabicyclo[2.2.1]heptan-2-yl)methanone]",,,,Ki (rat orexin 1 receptor): 6 nM; Ki (human orexin 1 receptor): 5 nM
"CN(c1ccc(C(F)(F)F)cn1)[C@@H]1C[C@H]2C[C@@H]1N(C(=O)c1cccc(F)c1-c1ncccn1)C2 [Example 157, (3-fluoro-2-(pyrimidin-2-yl)phenyl)((1S,4S,6R)-6-(methyl(5-(trifluoromethyl)pyridin-2-yl)amino)-2-azabicyclo[2.2.1]heptan-2-yl)methanone]",6,,351,
"CC(=O)N(c1ccc(C(F)(F)F)cn1)[C@@H]1C[C@H]2C[C@@H]1N(C(=O)c1cccc(F)c1-c1ncccn1)C2 [Example 162, N-((1S,4R,6R)-2-(3-fluoro-2-(pyrimidin-2-yl)benzoyl)-2-azabicyclo[2.2.1]heptan-6-yl)-N-(5-(trifluoromethyl)pyridin-2-yl)acetamide]",> 10000,,> 10000,
"O=C(c1cc(F)ccc1-c1ncccn1)N1C[C@H]2C[C@@H](Nc3ccc(Cl)cn3)[C@@H]1C2 [Example 172, ((1S,4S,6R)-6-((5-chloropyridin-2-yl)amino)-2-azabicyclo[2.2.1]heptan-2-yl)(5-fluoro-2-(pyrimidin-2-yl)phenyl)methanone]",8,7,,
"O=C(c1ccccc1-n1nccn1)N1C[C@@H]2CC[C@H]1[C@H](Nc1cnc(C(F)(F)F)cn1)C2 [Example 275, (2-(2H-1,2,3-triazol-2-yl)phenyl)((1S,4R,6R)-6-((5-(trifluoromethyl)pyrazin-2-yl)amino)-2-azabicyclo[2.2.2]octan-2-yl)methanone]",,,,Ki (rat orexin 1 receptor): 8 nM; Ki (human orexin 2 receptor): 175 nM

# Now from value to compound, other results behind:
Ki (rat orexin 1 receptor; [1]) [nM],Ki (human orexin 1 receptor; [2]) [nM],Ki (human orexin 2 receptor; [3]) [nM],SMILES,also measured
22,24,,"O=C(c1ccc(F)cc1-c1ncccn1)N1CC2CCC1C(Oc1ccc(C(F)(F)F)cn1)C2 (racemic) [Example 250, (R/S)-(4-fluoro-2-(pyrimidin-2-yl)phenyl)(6-((5-(trifluoromethyl)pyridin-2-yl)oxy)-2-azabicyclo[2.2.2]octan-2-yl)methanone]",
18,11,,"O=C(c1ccccc1-c1ncc(F)cn1)N1CC2CCC1C(Oc1ccc(C(F)(F)F)cn1)C2 (racemic) [Example 251, (R/S)-(2-(5-fluoropyrimidin-2-yl)phenyl)(6-((5-(trifluoromethyl)pyridin-2-yl)oxy)-2-azabicyclo[2.2.2]octan-2-yl)methanone]",
2100,,3000,"COC(=O)c1cnc(N[C@@H]2C[C@H]3C[C@@H]2N(C(=O)c2ccccc2-n2nccn2)C3)cn1 [Example 221, methyl 5-(((1S,4S,6R)-2-(2-(2H-1,2,3-triazol-2-yl)benzoyl)-2-azabicyclo[2.2.1]heptan-6-yl)amino)pyrazine-2-carboxylate]",
261,,> 10000,"O=C(c1cccnc1-n1nccn1)N1C[C@H]2C[C@@H](Nc3ncc(C(F)(F)F)cn3)[C@@H]1C2 [Example 222, (2-(2H-1,2,3-triazol-2-yl)pyridin-3-yl)((1S,4S,6R)-6-((5-(trifluoromethyl)pyrimidin-2-yl)amino)-2-azabicyclo[2.2.1]heptan-2-yl)methanone]",
280,,1100,"CCOc1ccc(C)nc1C(=O)N1C[C@H]2C[C@@H](Nc3ncc(C(F)(F)F)cn3)[C@@H]1C2 [Example 233, (3-ethoxy-6-methylpyridin-2-yl)((1S,4S,6R)-6-((5-(trifluoromethyl)pyrimidin-2-yl)amino)-2-azabicyclo[2.2.1]heptan-2-yl)methanone]",
16,19,,"O=C(c1ccc(F)cc1-c1ncccn1)N1C[C@@H]2CC[C@H]1[C@H](Oc1ccc(C(F)(F)F)cn1)C2 [Example 259, (4-fluoro-2-(pyrimidin-2-yl)phenyl)((1S,4R,6R)-6-((5-(trifluoromethyl)pyridin-2-yl)oxy)-2-azabicyclo[2.2.2]octan-2-yl)methanone]",
10,10,,"O=C(c1ccccc1-c1ncc(F)cn1)N1C[C@@H]2CC[C@H]1[C@H](Oc1ccc(C(F)(F)F)cn1)C2 [Example 262, (2-(5-fluoropyrimidin-2-yl)phenyl)((1S,4R,6R)-6-((5-(trifluoromethyl)pyridin-2-yl)oxy)-2-azabicyclo[2.2.2]octan-2-yl)methanone]",
2700,,> 10000,"O=C(c1cccc(F)c1-c1ncccn1)N1C[C@H]2CC[C@@H]1[C@@H](Nc1cnc(C(F)(F)F)cn1)C2 [Example 276, (3-fluoro-2-(pyrimidin-2-yl)phenyl)((1R,4S,6S)-6-((5-(trifluoromethyl)pyrazin-2-yl)amino)-2-azabicyclo[2.2.2]octan-2-yl)methanone]",
822,,3100,"Cc1ccc(-n2nccn2)c(C(=O)N2C[C@H]3C[C@@H](Oc4ccc5cccnc5n4)[C@@H]2C3)n1 [Example 286, ((1S,4R,6R)-6-((1,8-naphthyridin-2-yl)oxy)-2-azabicyclo[2.2.1]heptan-2-yl)(6-methyl-3-(2H-1,2,3-triazol-2-yl)pyridin-2-yl)methanone]",
